Test results published in patent US11472805B2, “Tricyclic compounds and their use as phosphodiesterase inhibitors” (Pfizer Inc., priority 2015, dated 2022).

Legend:
Assay type in all cases: biochemical
Human PDE4A3 = Human PDE4A3 (Homo sapiens (Human), UniProt P27815); test: PDE4A3 Scintillation Proximity Assay (SPA), inhibition of enzyme activity; details: Table 9, geometric mean of 2-9 determinations unless otherwise indicated, read-out: Human PDE4A FL
Experimental: (§1) The PDE4A, PDE4B, PDE4C and PDE4D binding affinity for the compounds of the present invention was determined utilizing the following biological assay(s):
(§2) The recombinant Bacmid was isolated and used to transfect insect cells to generate a viral stock. To generate cell paste for purification, insect cells were infected with the virus stock and cells were harvested 72 hours after infection. Insect cell paste was lysed and after centrifugation, the supernatant was batch bound to Ni-NTA agarose (GE Healthcare) and eluted with 250 mM imidazole. This eluate was diluted with FLAG buffer (50 mM Tris HCL pH 7.5, 100 mM NaCl, 5% Glycerol, 1 mM TCEP with protease inhibitors) and batch bound to ant-FLAG M2 agarose (Sigma) overnight at 4° C. The agarose was packed into a column, washed with buffer and eluted with buffer containing elute using 250 ug/ml Flag-peptide. Fractions were analyzed using SDS-PAGE Coomassie blue staining and pooled based on purity. Pooled fractions were chromatographed on a S200 120 ml column (GE Healthcare) in 50 mM Tris HCL pH 7.5, 150 mM NaCl, 10% Glycerol, 2 mM TCEP with protease inhibitors. PDE4A3 fractions were analyzed by SDS-PAGE Coomassie blue staining, pooled based on purity, dialyzed against 50 mM Tris HCL pH 7.5, 100 mM NaCl, 20% Glycerol, 2 mM TCEP, frozen and stored at −80° C.
(§3) The PDE4A3, PDE4B1, PDE4C1 and PDE4D3 assays use the Scintillation Proximity Assay (SPA) technology to measure the inhibition of human recombinant PDE4A1, PDE4B3, PDE4C1, and PDE4D3 enzyme activity by compounds in vitro. The PDE4A1, PDE4B3, PDE4C1, and PDE4D3 assays are run in parallel using identical parameters, except for the concentration of enzyme ([…]). The assays are performed in a 384-well format with 50 uL assay buffer (50 mM TRIS pH7.5; 1.3 mM MgCl2; 0.01% Brij) containing enough PDE4A3, PDE4B1, PDE4C1, and PDE4D to convert ˜20% of substrate (1 μM cAMP consisting of 20 nM 3H-cAMP+[…] cold cAMP) and a range of inhibitors. Reactions are incubated for 30 min at 25° C. The addition of 20 uL of 8 mg/ml yitrium silicate SPA beads (Perkin Elmer) stops the reaction. The plates are sealed (TopSeal, Perkin Elmer) and the beads are allowed to settle for 8 hrs, after which they are read on the Trilux Microbeta overnight.

human PDE4D3 = human PDE4D3 (Homo sapiens (Human), UniProt Q08499); test: PDE4D3 Scintillation Proximity Assay (SPA), inhibition of enzyme activity; details: Table 9, geometric mean of 2-9 determinations unless otherwise indicated, read-out: Human PDE4D FL
human PDE4D3, sequence (Q08499 186-808): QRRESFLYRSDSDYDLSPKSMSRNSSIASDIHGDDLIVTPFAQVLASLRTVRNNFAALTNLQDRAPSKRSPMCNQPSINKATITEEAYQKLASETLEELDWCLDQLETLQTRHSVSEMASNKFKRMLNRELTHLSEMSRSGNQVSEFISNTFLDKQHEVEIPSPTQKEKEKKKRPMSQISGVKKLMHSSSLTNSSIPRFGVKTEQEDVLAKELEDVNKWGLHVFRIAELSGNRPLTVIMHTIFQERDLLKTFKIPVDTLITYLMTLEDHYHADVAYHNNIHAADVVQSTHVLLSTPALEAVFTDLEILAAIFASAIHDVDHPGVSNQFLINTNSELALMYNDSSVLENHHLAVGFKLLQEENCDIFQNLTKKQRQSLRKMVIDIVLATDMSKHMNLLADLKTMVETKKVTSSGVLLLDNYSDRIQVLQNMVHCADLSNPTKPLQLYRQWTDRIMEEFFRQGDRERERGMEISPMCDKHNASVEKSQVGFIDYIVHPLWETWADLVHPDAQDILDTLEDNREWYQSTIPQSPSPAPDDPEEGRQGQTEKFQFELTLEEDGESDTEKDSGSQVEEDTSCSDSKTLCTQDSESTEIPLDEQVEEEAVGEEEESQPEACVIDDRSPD
Experimental: as §1
A portion of the human PDE4D3 coding sequence (amino acids 50 to 672 from the sequence with accession number Q08499-2) was cloned into the baculovirus expression vector pFastBac (Invitrogen) engineered to include a C-terminal His6 affinity tag to aid in purification as described in Seeger, T. F. et al., Brain Research 985 (2003) 113-126. The recombinant Bacmid was isolated and used to transfect insect cells to generate a viral stock. To generate cell paste for purification, insect cells were infected and cells were harvested 72 hours after infection. Insect cell paste was lysed and after centrifugation, the supernatant was chromatographed on Ni-NTA agarose (Qiagen) as described in Seeger, T. F. et al., Brain Research 985 (2003) 113-126. Ni-NTA agarose eluting fractions containing PDE4 were pooled, diluted with Q Buffer A (50 mM Tris HCl pH 8, 4% glycerol, 100 mM NaCl, 1 mM TCEP, Protease inhibitors EDTA-free (Roche)) to reduce NaCl to ˜200 mM, and loaded on a Q Sepharose (GE Healthcare) column. After washing with Q buffer A to baseline, PDE4D was eluted with a gradient from 10% to 60% of Buffer B (50 mM Tris HCl pH 8, 1 M NaCl, 4% glycerol, 1 mM TCEP). PDE4D fractions were analyzed by SDS-PAGE Coomassie blue staining, pooled based on purity, frozen and stored at −80° C.
as §3

Human PDE4C1 = Human PDE4C1 (Homo sapiens (Human), UniProt Q08493); test: PDE4C1 Scintillation Proximity Assay (SPA), inhibition of enzyme activity; details: Table 9, geometric mean of 2-9 determinations unless otherwise indicated, read-out: Human PDE4C FL
Human PDE4C1, sequence (Q08493 2-712): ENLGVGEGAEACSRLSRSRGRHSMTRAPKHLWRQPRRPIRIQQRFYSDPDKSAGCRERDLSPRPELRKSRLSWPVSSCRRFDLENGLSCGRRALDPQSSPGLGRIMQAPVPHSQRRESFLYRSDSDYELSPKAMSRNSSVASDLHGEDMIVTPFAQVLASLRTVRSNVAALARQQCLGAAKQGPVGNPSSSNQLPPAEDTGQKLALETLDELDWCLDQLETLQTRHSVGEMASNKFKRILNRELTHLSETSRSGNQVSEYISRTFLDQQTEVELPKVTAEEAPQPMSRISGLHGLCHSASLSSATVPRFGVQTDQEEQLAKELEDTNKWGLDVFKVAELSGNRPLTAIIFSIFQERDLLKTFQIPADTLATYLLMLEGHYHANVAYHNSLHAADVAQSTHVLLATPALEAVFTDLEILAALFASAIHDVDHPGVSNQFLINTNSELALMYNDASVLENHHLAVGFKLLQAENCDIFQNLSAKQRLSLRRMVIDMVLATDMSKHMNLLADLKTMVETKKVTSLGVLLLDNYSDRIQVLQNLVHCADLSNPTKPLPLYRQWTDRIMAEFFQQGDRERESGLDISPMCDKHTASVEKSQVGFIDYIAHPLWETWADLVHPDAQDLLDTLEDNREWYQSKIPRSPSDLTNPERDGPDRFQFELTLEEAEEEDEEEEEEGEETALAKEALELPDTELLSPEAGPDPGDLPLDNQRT
Experimental: as §1
as §2, with “PDE4C1” for “PDE4A3”
as §3

Human PDE4B1 = Human PDE4B1 (Homo sapiens (Human), UniProt Q07343, S133E/S654A/S659A/S661A); test: PDE4B1 Scintillation Proximity Assay (SPA), inhibition of enzyme activity; details: Table 9, geometric mean of 2-9 determinations unless otherwise indicated, read-out: Human PDE4B FL
Human PDE4B1, sequence (Q07343 122-736 S133E/S654A/S659A/S661A): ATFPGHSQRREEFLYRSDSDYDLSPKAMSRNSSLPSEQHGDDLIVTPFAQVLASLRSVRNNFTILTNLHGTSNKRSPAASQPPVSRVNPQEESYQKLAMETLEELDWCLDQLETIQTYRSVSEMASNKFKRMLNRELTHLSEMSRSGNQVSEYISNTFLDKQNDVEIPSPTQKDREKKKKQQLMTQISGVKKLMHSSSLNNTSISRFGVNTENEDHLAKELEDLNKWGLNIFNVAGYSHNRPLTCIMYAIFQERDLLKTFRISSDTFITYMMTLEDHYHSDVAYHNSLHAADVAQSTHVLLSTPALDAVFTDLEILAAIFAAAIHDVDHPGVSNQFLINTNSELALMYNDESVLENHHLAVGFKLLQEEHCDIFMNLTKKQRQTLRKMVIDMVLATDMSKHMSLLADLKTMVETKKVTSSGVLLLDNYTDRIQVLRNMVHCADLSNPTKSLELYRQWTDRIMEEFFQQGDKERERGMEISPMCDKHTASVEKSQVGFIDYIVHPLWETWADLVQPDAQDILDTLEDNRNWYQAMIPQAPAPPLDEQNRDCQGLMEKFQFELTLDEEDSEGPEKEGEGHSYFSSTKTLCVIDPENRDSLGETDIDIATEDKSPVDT
Experimental: as §1
The recombinant Bacmid was isolated and used to transfect insect cells to generate a viral stock. To generate cell paste for purification, insect cells were infected with the virus stock and cells were harvested 72 hours after infection as described in Seeger, T. F. et al., Brain Research 985 (2003) 113-126. Insect cell paste was lysed and after centrifugation, the supernatant was chromatographed on Ni-NTA agarose (Qiagen) as described in Seeger, T. F. et al., Brain Research 985 (2003) 113-126. Ni-NTA agarose eluting fractions containing PDE4 were pooled, diluted with Q buffer A (20 mM Tris HCl pH 8, 5% glycerol, 1 mM TCEP) to reduce NaCl to ˜100 mM and loaded on a Source 15Q (GE Healthcare) column. After washing with Q buffer A/10% buffer B to baseline, PDE4D was eluted with a gradient from 10% to 60% of Buffer B (20 mM Tris HCl pH 8, 1 M NaCl, 5% glycerol, 1 mM TCEP). PDE4D fractions were analyzed by SDS-PAGE Coomassie blue staining, pooled based on purity, frozen and stored at −80° C.
as §3

Human PDE4A3, sequence (P27815 other isoform, or with tags, fused parts or gaps): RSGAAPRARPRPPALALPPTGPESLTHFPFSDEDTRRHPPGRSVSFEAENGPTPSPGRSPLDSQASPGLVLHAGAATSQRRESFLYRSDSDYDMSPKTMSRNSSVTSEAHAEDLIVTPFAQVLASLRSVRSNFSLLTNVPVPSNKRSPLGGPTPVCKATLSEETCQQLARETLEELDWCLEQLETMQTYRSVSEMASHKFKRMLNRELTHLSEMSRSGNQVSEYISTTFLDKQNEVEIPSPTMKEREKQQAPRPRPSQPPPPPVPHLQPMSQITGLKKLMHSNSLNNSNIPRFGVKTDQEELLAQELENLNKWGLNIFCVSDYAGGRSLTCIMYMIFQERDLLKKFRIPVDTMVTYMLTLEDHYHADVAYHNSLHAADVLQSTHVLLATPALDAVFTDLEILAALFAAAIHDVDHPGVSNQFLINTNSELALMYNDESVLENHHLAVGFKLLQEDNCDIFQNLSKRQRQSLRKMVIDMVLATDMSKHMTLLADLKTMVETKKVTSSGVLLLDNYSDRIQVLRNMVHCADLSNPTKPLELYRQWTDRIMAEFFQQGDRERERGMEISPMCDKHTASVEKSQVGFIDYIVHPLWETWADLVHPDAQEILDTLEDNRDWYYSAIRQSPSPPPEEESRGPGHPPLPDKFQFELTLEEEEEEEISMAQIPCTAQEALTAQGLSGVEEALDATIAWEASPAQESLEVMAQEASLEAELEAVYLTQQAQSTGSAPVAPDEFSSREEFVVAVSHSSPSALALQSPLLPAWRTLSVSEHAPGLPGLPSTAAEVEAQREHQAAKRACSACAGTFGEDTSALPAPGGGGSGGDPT

IC50 (Human PDE4A3) [nM] | IC50 (human PDE4D3) [nM] | IC50 (Human PDE4C1) [nM] | IC50 (Human PDE4B1) [nM] | Compound
19 | 660 | 52 | 27 | O=C1c2c(-c3ccc(Cl)c(F)c3)c3ncccc3n2CCN1c1ncccn1 [Example 74, 10-(4-Chloro-3-fluorophenyl)-8-(pyrimidin-2-yl)-7,8-dihydropyrido[2′,3′:4,5]pyrrolo[1,2-a]pyrazin-9(6H)-one]
3.53 | 90.4 | 15.1 | 4.36 | N#Cc1ccc(-c2c3n(c4scnc24)CCN(C2CC2)C3=O)cc1F [Example 72, 4-(7-Cyclopropyl-8-oxo-5,6,7,8-tetrahydro[1,3]thiazolo[4′,5′:4,5]pyrrolo[1,2-a]pyrazin-9-yl)-2-fluorobenzonitrile]
1.59 | 281 | 7.88 | 5.81 | COc1ccc(-c2c3n(c4cccnc24)CCN(C2CC2)C3=O)cc1F [Example 45, 8-Cyclopropyl-10-(3-fluoro-4-methoxyphenyl)-7,8-dihydropyrido[2′,3′:4,5]pyrrolo[1,2-a]pyrazin-9(6H)-one]
11.8 | 397 | 99 | 11.2 | Cc1ccc(C#N)cc1-c1c2n(c3cccnc13)CCN(C1CC1)C2=O [Example 60, 3-(8-Cyclopropyl-9-oxo-6,7,8,9-tetrahydropyrido[2′,3′:4,5]pyrrolo[1,2-a]pyrazin-10-yl)-4-methylbenzonitrile]
2.99 | 356 | 9.62 | 6.9 | Cc1cc(C#N)ccc1-c1c2n(c3cccnc13)CCN(C1CC1)C2=O [Example 50, 4-(8-Cyclopropyl-9-oxo-6,7,8,9-tetrahydropyrido[2′,3′:4,5]pyrrolo[1,2-a]pyrazin-10-yl)-3-methylbenzonitrile]
7.66 | 700 | 122 | 25.2 | Cc1cc(Cl)ccc1-c1c2n(c3cccnc13)CCN(c1ncccn1)C2=O [Example 73, 10-(4-Chloro-2-methylphenyl)-8-(pyrimidin-2-yl)-7,8-dihydropyrido[2′,3′:4,5]pyrrolo[1,2-a]pyrazin-9(6H)-one]
1.26 | 130 | 9.22 | 2.38 | O=C1c2c(-c3cccc(F)c3)c3ncccc3n2CCN1C1CC1 [Example 41, 8-Cyclopropyl-10-(3-fluorophenyl)-7,8-dihydropyrido[2′,3′:4,5]pyrrolo[1,2-a]pyrazin-9(6H)-one]

Continued, molecule first:

Compound | IC50 (Human PDE4A3) [nM] | IC50 (human PDE4D3) [nM] | IC50 (Human PDE4C1) [nM] | IC50 (Human PDE4B1) [nM]
O=C1c2c(-c3ccc(F)cc3)c3ncccc3n2CCN1C1CC1 [Example 23, 8-Cyclopropyl-10-(4-fluorophenyl)-7,8-dihydropyrido[2′,3′:4,5]pyrrolo[1,2-a]pyrazin-9(6H)-one] | 13 | 321 | 82 | 3.13
Cc1cc(C#N)ccc1-c1c2n(c3scnc13)CCN(C1CC1)C2=O [Example 14, 4-(7-Cyclopropyl-8-oxo-5,6,7,8-tetrahydro[1,3]thiazolo[4′,5′:4,5]pyrrolo[1,2-a]pyrazin-9-yl)-3-methylbenzonitrile] | 18.5 | 2090 | 79 | 19.3
Cc1ccc(-c2c3n(c4cccnc24)CCN(C2CC2)C3=O)cc1 [Example 20, 8-Cyclopropyl-10-(4-methylphenyl)-7,8-dihydropyrido[2′,3′:4,5]pyrrolo[1,2-a]pyrazin-9(6H)-one] | 2.52 | 465 | 11.5 | 4.88
Cc1ccc(-c2c3n(c4cccnc24)CCN(C2CC2)C3=O)cc1C [Example 33, 8-Cyclopropyl-10-(3,4-dimethylphenyl)-7,8-dihydropyrido[2′,3′:4,5]pyrrolo[1,2-a]pyrazin-9(6H)-one] | 4.93 | 497 | 11.2 | 6.09
N#Cc1ccc(-c2c3n(c4cccnc24)CCN(C2CC2)C3=O)cc1F [Example 4, 4-(8-Cyclopropyl-9-oxo-6,7,8,9-tetrahydropyrido[2′,3′:4,5]pyrrolo[1,2-a]pyrazin-10-yl)-2-fluorobenzonitrile] | 4.66 | 36.3 | 17 | < 0.81
N#Cc1ccc(-c2c3n(c4cccnc24)CCN(C2CC2)C3=O)cn1 [Example 26, 5-(8-Cyclopropyl-9-oxo-6,7,8,9-tetrahydropyrido[2′,3′:4,5]pyrrolo[1,2-a]pyrazin-10-yl)pyridine-2-carbonitrile] | 8.15 | 138 | 14.8 | 2.98
C[C@@H]1Cn2c(c(-c3ccc(Cl)cc3)c3ncccc32)C(=O)N1C1CC1 [Example 10, (7R)-10-(4-Chlorophenyl)-8-cyclopropyl-7-methyl-7,8-dihydropyrido[2′,3′:4,5]pyrrolo[1,2-a]pyrazin-9(6H)-one] | 15.5 | 768 | 28.2 | 12.2
COc1c(F)cc(-c2c3n(c4cccnc24)CCN(C2CC2)C3=O)cc1F [Example 24, 8-Cyclopropyl-10-(3,5-difluoro-4-methoxyphenyl)-7,8-dihydropyrido[2′,3′:4,5]pyrrolo[1,2-a]pyrazin-9(6H)-one] | 4.48 | 125 | 24.5 | 2.94
